Drawing on patent US20240317758A1 (Halia Therapeutics, Inc., priority 2021, published 2024), this text covers IC50 for 20 compounds.

One experiment concerns IL-1β release. Description: IL-1β release assay (THP-1 cells, PMA, LPS, nigericin). The format is cell-based. As to conditions: Homo sapiens, LPS 250 ng/mL, nigericin 20 μM, cleaved IL-1β in media. The procedure:
Approximately 1.5 million THP-1 cells were plated in each well of a 6-well TC plate and incubated with 40 nM PMA in RPMI (10% FBS, 1% Penstrep) for 24 hours. The media was then removed and cells were rested in RPMI (10% FBS, 1% Penstrep) for 24 hours after which time the media was removed and cells were pre-treated for 2 hours with various concentrations of compounds of interest (typically serial 3-fold dilution in RPMI+5% FBS, concentrations ranging from 1 μM to 0.5 nM) in RPMI (5% FBS). The media was again removed and cells were incubated with 250 ng/mL LPS and compounds of interest (concentrations as above) in RMPI (5% FBS) for 2 hours. The media was removed for a last time and cells were incubated with 20 μM nigericin and compounds of interest (concentrations as above) in Opti-MEM for 30 minutes. Cell media was then collected and the amount of cleaved IL-1β was determined using a JESS instrument (Protein Simple) and standard protocols. Cleaved Il-1β antibody was obtained from Cell Signaling (catalogue #83186S) and was used at 1:20 dilution in antibody diluent 2. Protein Simple 1× anti-Rabbit HRP secondary antibody was used along with Protein Simple luminol and peroxide for chemiluminescent detection. Primary antibody incubation time was increased from 30 minutes to 60 minutes.

Experiment [1] concerns the target T1, full-length recombinant human NEK7 (Homo sapiens, UniProt Q8TDX7).
T1 construct: full-length recombinant human NEK7; GST (N); purchased SignalChem NO9-10G; host or cells: Sf9 insect cells (baculovirus)
As to the kind of experiment: NEK7 enzymatic assay. It is filed as biochemical. As to conditions: recombinant human NEK7, casein substrate, radiolabelled ATP. A digest of the protocol: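 Full-length GST-tagged human NEK7 from Sf9 cells (assay concentration 70 nM) was used with casein (assay concentration 20 μM) in Hepes pH 7.5 buffer, 1% DMSO, and compound (3-fold dilutions, 10 μM to 0.5 nM) was preincubated 20 min at room temperature. Radiolabelled ATP was added for 2 h, phosphorylation was read on P81 paper, and IC50 was fitted from % activity remaining versus vehicle.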

T1 sequence (Q8TDX7 whole entry): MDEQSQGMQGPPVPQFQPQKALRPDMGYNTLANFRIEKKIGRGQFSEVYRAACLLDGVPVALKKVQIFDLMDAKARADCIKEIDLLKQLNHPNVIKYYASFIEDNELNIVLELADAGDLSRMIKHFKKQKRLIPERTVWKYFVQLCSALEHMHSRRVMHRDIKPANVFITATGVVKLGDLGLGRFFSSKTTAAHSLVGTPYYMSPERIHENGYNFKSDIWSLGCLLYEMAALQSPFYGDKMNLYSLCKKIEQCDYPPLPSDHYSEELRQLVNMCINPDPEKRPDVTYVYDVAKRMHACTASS

As to `Nc1ncnc2c1c(-c1ccc(NC(=O)Nc3ccc(CN4CCNCC45CC5)c(C(F)(F)F)c3)c(F)c1)cn2C1CC1` [Example I-66, 1-(4-((4,7-diazaspiro[2.5]octan-4-yl)methyl)-3-(trifluoromethyl)phenyl)-3-(4-(4-amino-7-cyclopropyl-7H-pyrrolo[2,3-d]pyrimidin-5-yl)-2-fluorophenyl)urea], the 50% inhibitory concentration (IC50) with IL-1β release is 0.25 to 1 µM; in experiment [1] it was less than 0.1 µM.

For `CN1CCN(Cc2ncc(NC(=O)Nc3ccc(-c4cn(C5CC5)c5ncnc(N)c45)cc3F)cc2C(F)(F)F)CC1` [Example I-68, 1-(4-(4-amino-7-cyclopropyl-7H-pyrrolo[2,3-d]pyrimidin-5-yl)-2-fluorophenyl)-3-(6-((4-methylpiperazin-1-yl)methyl)-5-(trifluoromethyl)pyridin-3-yl)urea], the values for the IC50 (in the experiment on IL-1β release; in experiment [1]) were 0.05 to 0.25 µM and 0.1 to 0.5 µM, respectively.

Turning to `CN1CCC(Oc2ccc(NC(=O)Nc3ccc(-c4cn(C5CC5)c5ncnc(N)c45)cc3F)cc2C(F)(F)F)CC1` [Example I-47, 1-(4-(4-amino-7-cyclopropyl-7H-pyrrolo[2,3-d]pyrimidin-5-yl)-2-fluorophenyl)-3-(4-((1-methylpiperidin-4-yl)oxy)-3-(trifluoromethyl)phenyl)urea], the IC50 in the experiment on IL-1β release was less than 0.05 µM; in experiment [1], less than 0.1 µM.

For `CN1CCN(C2CC(F)(F)c3cc(NC(=O)Nc4ccc(-c5nn(C6CC6)c6ncnc(N)c56)cc4F)ccc32)CC1` (stereo not shown) [Example I-94, 1-(4-(4-amino-1-cyclopropyl-1H-pyrazolo[3,4-d]pyrimidin-3-yl)-2-fluorophenyl)-3-(3,3-difluoro-1-(4-methylpiperazin-1-yl)-2,3-dihydro-1H-inden-5-yl)urea], the half-inhibitory concentration (IC50) is 0.05 to 0.25 µM in the experiment on IL-1β release and less than 0.1 µM in experiment [1].

Consider `COCCn1cc(-c2ccc(NC(=O)Nc3ccc(CN4CCN(C)CC4)c(C(F)(F)F)c3)c(F)c2)c2c(N)ncnc21` [Example I-81, 1-(4-(4-amino-7-(2-methoxyethyl)-7H-pyrrolo[2,3-d]pyrimidin-5-yl)-2-fluorophenyl)-3-(4-((4-methylpiperazin-1-yl)methyl)-3-(trifluoromethyl)phenyl)urea], for which the IC50 is less than 0.05 µM in the experiment on IL-1β release and less than 0.1 µM in experiment [1].

With `CN1CCN(Cc2cc(NC(=O)Nc3ccc(-c4nn(C5CC5)c5ncnc(N)c45)cc3F)cc(C(F)(F)F)c2)CC1` [Example I-87, 1-(4-(4-amino-1-cyclopropyl-1H-pyrazolo[3,4-d]pyrimidin-3-yl)-2-fluorophenyl)-3-(3-((4-methylpiperazin-1-yl)methyl)-5-(trifluoromethyl)phenyl)urea], the values for the IC50 (in the experiment on IL-1β release; in experiment [1]) were greater than 1 µM and less than 0.1 µM, respectively.

As to `Nc1ncnc2c1c(-c1ccc(NC(=O)Nc3ccc(CN4CCN(CCO)CC4)c(C(F)F)c3)c(F)c1)cn2C1CC1` [Example I-72, 1-(4-(4-amino-7-cyclopropyl-7H-pyrrolo[2,3-d]pyrimidin-5-yl)-2-fluorophenyl)-3-(3-(difluoromethyl)-4-((4-(2-hydroxyethyl)piperazin-1-yl)methyl)phenyl)urea], the IC50 with IL-1β release is 0.05 to 0.25 µM; in experiment [1] it was less than 0.1 µM.

As for `CN1CCN(Cc2ccc(NC(=O)Nc3ccc(-c4nn(CCO)c5ncnc(N)c45)cc3F)cc2C(F)(F)F)CC1` [Example I-76, 1-(4-(4-amino-1-(2-hydroxyethyl)-1H-pyrazolo[3,4-d]pyrimidin-3-yl)-2-fluorophenyl)-3-(4-((4-methylpiperazin-1-yl)methyl)-3-(trifluoromethyl)phenyl)urea], the IC50 is 0.05 to 0.25 µM in the experiment with IL-1β release and less than 0.1 µM in experiment [1].

As for `CN1CCN(Cc2ccc(NC(=O)Nc3ccc(-c4cn(C5CCN(S(C)(=O)=O)CC5)c5ncnc(N)c45)cc3F)cc2C(F)(F)F)CC1` [Example I-101, 1-(4-(4-amino-7-(1-(methylsulfonyl)piperidin-4-yl)-7H-pyrrolo[2,3-d]pyrimidin-5-yl)-2-fluorophenyl)-3-(4-((4-methylpiperazin-1-yl)methyl)-3-(trifluoromethyl)phenyl)urea], the IC50 in the experiment with IL-1β release was 0.05 to 0.25 µM; in experiment [1], less than 0.1 µM.

Consider `COCCN1CCN(Cc2ccc(NC(=O)Nc3ccc(-c4cn(C5CC5)c5ncnc(N)c45)cc3F)cc2C(F)(F)F)CC1` [Example I-43, 1-(4-(4-amino-7-cyclopropyl-7H-pyrrolo[2,3-d]pyrimidin-5-yl)-2-fluorophenyl)-3-(4-((4-(2-methoxyethyl)piperazin-1-yl)methyl)-3-(trifluoromethyl)phenyl)urea], for which the IC50 with IL-1β release is 0.05 to 0.25 µM; in experiment [1], less than 0.1 µM.

For `CCN1CCN(Cc2ccc(NC(=O)Nc3ccc(-c4nn(C5CC5)c5ncnc(N)c45)cc3F)cc2C(F)(F)F)CC1` [Example I-50, 1-(4-(4-amino-1-cyclopropyl-1H-pyrazolo[3,4-d]pyrimidin-3-yl)-2-fluorophenyl)-3-(4-((4-ethylpiperazin-1-yl)methyl)-3-(trifluoromethyl)phenyl)urea], the 50% inhibitory concentration (IC50) in the experiment with IL-1β release is less than 0.05 µM; in experiment [1], less than 0.1 µM.

`CN1CCN(C(=O)c2ccc(NC(=O)Nc3ccc(-c4nn(C5CC5)c5ncnc(N)c45)cc3F)cc2C(F)(F)F)CC1` [Example I-49, 1-(4-(4-amino-1-cyclopropyl-1H-pyrazolo[3,4-d]pyrimidin-3-yl)-2-fluorophenyl)-3-(4-(4-methylpiperazine-1-carbonyl)-3-(trifluoromethyl)phenyl)urea]: the figures for the half-maximal inhibitory concentration (IC50) (in the experiment on IL-1β release; in experiment [1]) were 0.05 to 0.25 µM and 0.1 to 0.5 µM, respectively.

For `CN1CCN(Cc2ccc(NC(=O)Nc3ccc(-c4cn(C5CC5)c5ncnc(N)c45)cc3F)cc2C(F)(F)F)CC1` [Example I-34, 1-(4-(4-amino-7-cyclopropyl-7H-pyrrolo[2,3-d]pyrimidin-5-yl)-2-fluorophenyl)-3-(4-((4-methylpiperazin-1-yl)methyl)-3-(trifluoromethyl)phenyl)urea], the IC50 was less than 0.05 µM in the experiment with IL-1β release and less than 0.1 µM in experiment [1].

As for `CC(c1ccc(NC(=O)Nc2ccc(-c3cn(C4CC4)c4ncnc(N)c34)cc2F)cc1C(F)(F)F)N1CCN(C)CC1` (stereo not shown) [Example I-6, 1-(4-(4-amino-7-cyclopropyl-7H-pyrrolo[2,3-d]pyrimidin-5-yl)-2-fluorophenyl)-3-(4-(1-(4-methylpiperazin-1-yl)ethyl)-3-(trifluoromethyl)phenyl)urea], the IC50 with IL-1β release is greater than 1 µM; in experiment [1] it was greater than 2 µM.

`Nc1ncnc2c1c(-c1ccc(NC(=O)Nc3ccc(CN4CCNCC4)c(C(F)(F)F)c3)c(F)c1)cn2C1CC1` [Example I-79, 1-(4-(4-amino-7-cyclopropyl-7H-pyrrolo[2,3-d]pyrimidin-5-yl)-2-fluorophenyl)-3-(4-(piperazin-1-ylmethyl)-3-(trifluoromethyl)phenyl)urea]: the IC50 in the experiment with IL-1β release is 0.05 to 0.25 µM; in experiment [1], less than 0.1 µM.

With `Nc1ncnc2c1c(-c1ccc(NC(=O)Nc3ccc(CN4CCN(CCS(=O)(=O)O)CC4)c(C(F)(F)F)c3)c(F)c1)cn2C1CC1` [Example I-100, 2-(4-(4-(3-(4-(4-amino-7-cyclopropyl-7H-pyrrolo[2,3-d]pyrimidin-5-yl)-2-fluorophenyl)ureido)-2-(trifluoromethyl)benzyl)piperazin-1-yl)ethane-1-sulfonic acid], the IC50 with IL-1β release is greater than 1 µM; in experiment [1], less than 0.1 µM.

As to `CC(=O)N1CCN(Cc2ccc(NC(=O)Nc3ccc(-c4cn(C5CC5)c5ncnc(N)c45)cc3F)cc2C(F)(F)F)CC1` [Example I-80, 1-(4-((4-acetylpiperazin-1-yl)methyl)-3-(trifluoromethyl)phenyl)-3-(4-(4-amino-7-cyclopropyl-7H-pyrrolo[2,3-d]pyrimidin-5-yl)-2-fluorophenyl)urea], the IC50 in the experiment with IL-1β release was greater than 1 µM; in experiment [1], 0.1 to 0.5 µM.

`CN(C)C1CCN(Cc2ccc(NC(=O)Nc3ccc(-c4cn(C5CC5)c5ncnc(N)c45)cc3F)cc2C(F)(F)F)C1` (stereo not shown) [Example I-45, 1-(4-(4-amino-7-cyclopropyl-7H-pyrrolo[2,3-d]pyrimidin-5-yl)-2-fluorophenyl)-3-(4-((3-(dimethylamino)pyrrolidin-1-yl)methyl)-3-(trifluoromethyl)phenyl)urea]: the half-inhibitory concentration (IC50) was less than 0.05 µM with IL-1β release and less than 0.1 µM in experiment [1].

Turning to `CC(=O)N1CCC(Oc2ccc(NC(=O)Nc3ccc(-c4cn(C5CC5)c5ncnc(N)c45)cc3F)cc2C(F)(F)F)CC1` [Example I-82, 1-(4-((1-acetylpiperidin-4-yl)oxy)-3-(trifluoromethyl)phenyl)-3-(4-(4-amino-7-cyclopropyl-7H-pyrrolo[2,3-d]pyrimidin-5-yl)-2-fluorophenyl)urea], the IC50 in the experiment on IL-1β release was in the range of 0.25 to 1 µM; in experiment [1], 0.1 to 0.5 µM.

On to `CN1CCN(Cc2ccc(NC(=O)Nc3ccc(-c4cn(C5CC5)c5ncnc(N)c45)cc3F)cc2C2CC2)CC1` [Example I-40, 1-(4-(4-amino-7-cyclopropyl-7H-pyrrolo[2,3-d]pyrimidin-5-yl)-2-fluorophenyl)-3-(3-cyclopropyl-4-((4-methylpiperazin-1-yl)methyl)phenyl)urea], for which the concentration for half-maximal inhibition (IC50) was in the range of 0.25 to 1 µM with IL-1β release and 0.1 to 0.5 µM in experiment [1].

A word on the IC50: it is the concentration that gives 50% inhibition.
